Reference: patent US8921376B2, “Pyrrolopyridines useful as inhibitors of protein kinase” (Vertex Pharmaceuticals Incorporated, priority 2005, dated 2014)

Assays:
Assay type in all cases: biochemical
Conditions in all cases: Table 6; enzyme inhibition data (Ki)
ROCK I = ROCK I (Homo sapiens, UniProt Q13464); assay: ROCK-I inhibition assay (radioactive enzyme assay, MBP substrate)
Outline: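 Human ROCK at 5 nM phosphorylated 27 μM myelin basic protein with 13 μM [γ-33P]ATP (final) in HEPES pH 7.5, MgCl2, NaCl, DTT and 1.5% DMSO. Reactions ran 2 h at room temperature before TCA quench and filter-plate scintillation counting. After background subtraction, data were fit to give Ki(app).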

JAK2 = JAK2 (Homo sapiens, UniProt O60674); assay: JAK2 inhibition assay (as Example 3 with JAK-2 enzyme)
Sequence of JAK2 (O60674 whole entry): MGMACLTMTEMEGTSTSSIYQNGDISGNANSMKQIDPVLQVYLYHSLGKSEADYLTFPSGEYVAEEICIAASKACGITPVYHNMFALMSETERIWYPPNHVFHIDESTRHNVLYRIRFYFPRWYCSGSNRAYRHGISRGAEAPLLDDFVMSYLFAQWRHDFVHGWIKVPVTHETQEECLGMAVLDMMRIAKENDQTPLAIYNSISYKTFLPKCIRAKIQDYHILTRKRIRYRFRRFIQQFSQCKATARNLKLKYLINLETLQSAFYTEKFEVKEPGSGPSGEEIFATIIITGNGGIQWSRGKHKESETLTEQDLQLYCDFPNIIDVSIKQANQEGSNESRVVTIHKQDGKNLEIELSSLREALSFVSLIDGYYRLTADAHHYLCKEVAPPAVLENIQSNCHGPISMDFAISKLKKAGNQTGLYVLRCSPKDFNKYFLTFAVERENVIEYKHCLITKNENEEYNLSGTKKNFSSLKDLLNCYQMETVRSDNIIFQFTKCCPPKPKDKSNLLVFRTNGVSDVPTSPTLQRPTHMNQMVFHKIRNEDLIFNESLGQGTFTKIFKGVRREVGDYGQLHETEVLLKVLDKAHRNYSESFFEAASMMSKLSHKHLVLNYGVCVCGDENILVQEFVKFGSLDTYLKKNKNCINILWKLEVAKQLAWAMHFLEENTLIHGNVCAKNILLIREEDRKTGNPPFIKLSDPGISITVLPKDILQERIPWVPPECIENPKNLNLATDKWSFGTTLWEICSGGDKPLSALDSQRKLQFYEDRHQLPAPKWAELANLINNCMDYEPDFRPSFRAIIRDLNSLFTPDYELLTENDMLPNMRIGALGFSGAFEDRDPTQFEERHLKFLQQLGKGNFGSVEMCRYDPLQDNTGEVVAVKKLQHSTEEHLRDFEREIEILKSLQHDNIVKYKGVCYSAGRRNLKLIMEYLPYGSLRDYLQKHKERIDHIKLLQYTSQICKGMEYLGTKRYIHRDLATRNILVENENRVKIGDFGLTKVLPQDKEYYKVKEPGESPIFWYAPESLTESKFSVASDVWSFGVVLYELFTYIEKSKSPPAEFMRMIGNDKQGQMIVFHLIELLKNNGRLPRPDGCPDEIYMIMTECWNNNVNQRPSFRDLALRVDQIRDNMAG
Outline: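 In HEPES pH 7.4 buffer with 10 mM MgCl2, 1 mM DTT, 25 mM NaCl and 0.01% BSA, JAK2 enzyme phosphorylated poly(Glu)4Tyr (final 15 μM) using 33P-ATP (final 12 μM) for 20 min at room temperature (25 °C). Reactions stopped with TCA; incorporated 33P measured by scintillation after filtration.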

JAK3 = target: T1, JAK3 (Homo sapiens, UniProt P52333); assay: JAK3 inhibition assay (33P incorporation into poly(Glu)4Tyr)
T1 sequence (P52333 1-1124): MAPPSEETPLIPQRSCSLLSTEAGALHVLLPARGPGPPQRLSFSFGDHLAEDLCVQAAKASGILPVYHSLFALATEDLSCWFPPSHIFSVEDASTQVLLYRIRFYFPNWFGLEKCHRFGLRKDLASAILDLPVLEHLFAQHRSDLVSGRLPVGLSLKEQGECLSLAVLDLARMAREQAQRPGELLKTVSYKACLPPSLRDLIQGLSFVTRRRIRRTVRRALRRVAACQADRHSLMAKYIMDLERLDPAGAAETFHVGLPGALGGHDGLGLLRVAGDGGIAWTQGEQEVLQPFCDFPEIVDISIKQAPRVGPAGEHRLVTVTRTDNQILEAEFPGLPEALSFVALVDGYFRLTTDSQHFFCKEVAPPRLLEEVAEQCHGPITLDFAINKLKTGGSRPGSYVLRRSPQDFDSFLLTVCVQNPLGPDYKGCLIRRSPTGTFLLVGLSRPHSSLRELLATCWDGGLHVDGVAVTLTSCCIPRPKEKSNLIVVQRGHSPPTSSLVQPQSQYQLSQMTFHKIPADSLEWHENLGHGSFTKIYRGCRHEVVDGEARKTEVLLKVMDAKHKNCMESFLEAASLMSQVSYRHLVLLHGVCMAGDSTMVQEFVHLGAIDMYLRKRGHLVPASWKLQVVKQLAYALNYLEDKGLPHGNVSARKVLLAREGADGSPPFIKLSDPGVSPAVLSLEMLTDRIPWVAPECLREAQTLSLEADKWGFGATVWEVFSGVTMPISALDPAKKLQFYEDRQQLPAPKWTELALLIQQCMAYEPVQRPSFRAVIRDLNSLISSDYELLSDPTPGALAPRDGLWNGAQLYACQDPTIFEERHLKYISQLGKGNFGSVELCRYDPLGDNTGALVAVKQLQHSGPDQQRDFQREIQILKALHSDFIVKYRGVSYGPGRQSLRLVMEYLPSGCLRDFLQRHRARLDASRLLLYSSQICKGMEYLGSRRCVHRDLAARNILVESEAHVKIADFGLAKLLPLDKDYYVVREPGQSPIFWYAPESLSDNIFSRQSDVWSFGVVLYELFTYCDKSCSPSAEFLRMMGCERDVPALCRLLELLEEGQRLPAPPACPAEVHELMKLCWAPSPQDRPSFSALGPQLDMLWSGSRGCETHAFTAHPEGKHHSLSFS
Outline: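 After TCA quench and filter harvest, scintillation counting of 33P measured phosphorylation of poly(Glu)4Tyr (1 μM) by 1 nM JAK3. The 20-min, 25° C. reaction contained 5 μM ATP (200 μCi/μmole) in pH 7.4 HEPES buffer with 10 mM MgCl2.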

Sequence of ROCK I (Q13464 whole entry): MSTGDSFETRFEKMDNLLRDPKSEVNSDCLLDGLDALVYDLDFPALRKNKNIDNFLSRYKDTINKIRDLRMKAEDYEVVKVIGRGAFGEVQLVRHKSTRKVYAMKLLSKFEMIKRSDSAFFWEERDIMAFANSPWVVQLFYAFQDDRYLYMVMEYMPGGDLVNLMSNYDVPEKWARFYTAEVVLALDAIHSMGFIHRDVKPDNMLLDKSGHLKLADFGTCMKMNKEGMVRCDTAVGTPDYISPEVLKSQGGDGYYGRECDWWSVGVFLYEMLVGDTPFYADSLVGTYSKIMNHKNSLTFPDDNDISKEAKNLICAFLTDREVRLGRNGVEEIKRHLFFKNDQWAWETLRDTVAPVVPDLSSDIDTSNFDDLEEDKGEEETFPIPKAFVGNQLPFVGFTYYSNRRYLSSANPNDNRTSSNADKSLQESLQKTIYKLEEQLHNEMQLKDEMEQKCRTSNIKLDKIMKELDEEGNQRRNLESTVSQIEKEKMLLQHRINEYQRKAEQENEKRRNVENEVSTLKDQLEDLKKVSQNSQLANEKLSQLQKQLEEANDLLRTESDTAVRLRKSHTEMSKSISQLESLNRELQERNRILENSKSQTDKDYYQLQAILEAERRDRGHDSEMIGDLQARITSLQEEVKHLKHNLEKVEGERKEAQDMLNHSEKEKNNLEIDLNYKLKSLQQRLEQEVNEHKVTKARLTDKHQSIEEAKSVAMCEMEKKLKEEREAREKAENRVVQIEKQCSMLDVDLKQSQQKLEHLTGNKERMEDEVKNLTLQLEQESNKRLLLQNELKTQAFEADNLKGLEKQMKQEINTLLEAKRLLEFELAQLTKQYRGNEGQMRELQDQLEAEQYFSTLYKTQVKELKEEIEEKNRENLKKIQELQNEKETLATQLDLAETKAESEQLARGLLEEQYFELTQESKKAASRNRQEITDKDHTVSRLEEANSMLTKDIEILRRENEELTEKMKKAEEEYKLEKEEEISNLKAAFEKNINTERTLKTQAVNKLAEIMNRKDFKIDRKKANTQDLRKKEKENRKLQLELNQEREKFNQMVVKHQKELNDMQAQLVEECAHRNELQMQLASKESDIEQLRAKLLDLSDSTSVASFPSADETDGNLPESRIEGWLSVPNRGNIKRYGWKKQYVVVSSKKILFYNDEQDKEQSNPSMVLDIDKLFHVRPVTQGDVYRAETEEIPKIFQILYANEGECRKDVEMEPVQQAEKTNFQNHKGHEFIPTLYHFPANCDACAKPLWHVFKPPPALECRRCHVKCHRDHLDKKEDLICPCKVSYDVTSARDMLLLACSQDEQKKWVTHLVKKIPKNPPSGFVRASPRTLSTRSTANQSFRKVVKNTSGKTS

Row | Ki (ROCK I) [nM] | Ki (JAK2) [nM] | Ki (JAK3) [nM] | Compound
1 | 500 to 5000 | < 500 | < 500 | O=C(c1cc(-c2c(F)cnc3[nH]ccc23)c[nH]1)N(CCC(F)(F)F)Cc1ccccc1 [compound 389]
2 | 500 to 5000 | < 500 | < 500 | O=C(c1cc(-c2c(F)cnc3[nH]ccc23)c[nH]1)N(CCC(F)(F)F)CC1CC1 [compound 390]
3 | < 500 | < 500 | < 500 | N#CCN(Cc1ccccc1)C(=O)c1cc(-c2c(F)cnc3[nH]ccc23)c[nH]1 [compound 391]
4 | 500 to 5000 | < 500 | < 500 | CCCN(CC1CC1)C(=O)c1cc(-c2c(F)cnc3[nH]ccc23)c[nH]1 [compound 392]
5 | < 500 | < 500 | < 500 | CN(CC(F)(F)F)C(=O)c1cc(-c2c(F)cnc3[nH]ccc23)c[nH]1 [compound 393]
6 | < 500 | < 500 | < 500 | N#CCCN(Cc1ccccc1)C(=O)c1cc(-c2c(F)cnc3[nH]ccc23)c[nH]1 [compound 394]
7 | 500 to 5000 | < 500 | < 500 | CCN(Cc1ccccc1)C(=O)c1cc(-c2c(F)cnc3[nH]ccc23)c[nH]1 [compound 395]
8 | < 500 | < 500 | < 500 | CCCN(CCC#N)C(=O)c1cc(-c2c(F)cnc3[nH]ccc23)c[nH]1 [compound 396]
9 | < 500 | < 500 | < 500 | CCCCN(CCC#N)C(=O)c1cc(-c2c(F)cnc3[nH]ccc23)c[nH]1 [compound 397]
10 | < 500 | < 500 | < 500 | N#CCCN(CC1CC1)C(=O)c1cc(-c2c(F)cnc3[nH]ccc23)c[nH]1 [compound 398]
11 | < 500 | < 500 | < 500 | N#CCN(Cc1cccc(Cl)c1)C(=O)c1cc(-c2c(F)cnc3[nH]ccc23)c[nH]1 [compound 399]
12 | < 500 | < 500 | < 500 | N#CCN(Cc1ccc(F)cc1)C(=O)c1cc(-c2c(F)cnc3[nH]ccc23)c[nH]1 [compound 400]
13 | < 500 | < 500 | < 500 | C=CCN(CC=C)C(=O)c1csc(-c2ccnc3[nH]ccc23)n1 [compound 401]
14 | < 500 | < 500 | < 500 | O=C(c1csc(-c2ccnc3[nH]ccc23)n1)N(CCC(F)(F)F)CC1CC1 [compound 402]
15 | < 500 | < 500 | < 500 | N#CCCN(CC(F)(F)F)C(=O)c1csc(-c2ccnc3[nH]ccc23)n1 [compound 403]
16 | < 500 | < 500 | < 500 | CCN(Cc1ccccc1)C(=O)c1csc(-c2ccnc3[nH]ccc23)n1 [compound 404]
17 | < 500 | < 500 | < 500 | N#CCCN(CCC(F)(F)F)C(=O)c1csc(-c2ccnc3[nH]ccc23)n1 [compound 405, 2-(1H-Pyrrolo[2,3-b]pyridin-4-yl)-thiazole-4-carboxylic acid (2-cyano-ethyl)-(3,3,3-trifluoro-propyl)-amide]
18 | < 500 | < 500 | < 500 | O=C(c1csc(-c2ccnc3[nH]ccc23)n1)N(CC1CC1)CC(F)(F)F [compound 406]
19 | < 500 | < 500 | < 500 | CCCN(CC(F)(F)F)C(=O)c1csc(-c2ccnc3[nH]ccc23)n1 [compound 407]

Row | Ki (ROCK I) [nM] | Ki (JAK2) [nM] | Ki (JAK3) [nM] | Compound
20 | < 500 | < 500 | < 500 | C=CCN(C(=O)c1csc(-c2ccnc3[nH]ccc23)n1)[C@@H](C)c1ccccc1 [compound 408]
21 | < 500 | < 500 | < 500 | N#CCCN(CC1CC1)C(=O)c1csc(-c2ccnc3[nH]ccc23)n1 [compound 409]
22 | < 500 | < 500 | < 500 | C=CCN(C(=O)c1csc(-c2ccnc3[nH]ccc23)n1)C1CCCC1 [compound 410]
23 | 500 to 5000 | 500 to 5000 | 500 to 5000 | O=C(c1csc(-c2ccnc3[nH]ccc23)n1)N1CCC(CO)CC1 [compound 411]
24 | 500 to 5000 | < 500 | < 500 | O=C(NCC1CC1)c1csc(-c2ccnc3[nH]ccc23)n1 [compound 412]
25 | 500 to 5000 | < 500 | 500 to 5000 | CC(C)CCNC(=O)c1csc(-c2ccnc3[nH]ccc23)n1 [compound 413]
26 | < 500 | < 500 | < 500 | CC1CC[C@@H](C)N1C(=O)c1csc(-c2ccnc3[nH]ccc23)n1 (stereo partly drawn) [compound 414]
27 | < 500 | < 500 | 500 to 5000 | O=C(c1csc(-c2ccnc3[nH]ccc23)n1)N1CC=CC1 [compound 415]
28 | < 500 | < 500 | < 500 | C[C@@H]1CC[C@@H](C)N1C(=O)c1csc(-c2ccnc3[nH]ccc23)n1 [compound 416]
29 | < 500 | < 500 | < 500 | C[C@@H]1CC[C@H](C)N1C(=O)c1csc(-c2ccnc3[nH]ccc23)n1 [compound 417]
30 | < 500 | < 500 | 500 to 5000 | O=C(c1csc(-c2ccnc3[nH]ccc23)n1)N1CCCC1 [compound 418]
31 | < 500 | < 500 | < 500 | CC1CCCN1C(=O)c1csc(-c2ccnc3[nH]ccc23)n1 (stereo not drawn) [compound 419]
32 | < 500 | < 500 | < 500 | CC1CCCCN1C(=O)c1csc(-c2ccnc3[nH]ccc23)n1 (stereo not drawn) [compound 420]
33 | < 500 | < 500 | < 500 | C[C@@H]1CCC[C@H](C)N1C(=O)c1csc(-c2ccnc3[nH]ccc23)n1 [compound 421]
34 | 500 to 5000 | 500 to 5000 | 500 to 5000 | CCOC(=O)[C@@H]1[C@@H](C)CCN1C(=O)c1csc(-c2ccnc3[nH]ccc23)n1 [compound 422]
35 | < 500 | < 500 | < 500 | CCC1CCCCN1C(=O)c1csc(-c2ccnc3[nH]ccc23)n1 (stereo not drawn) [compound 423]
36 | > 4000 | < 500 | < 500 | O=C(Cn1ccc2cnc(-c3ccnc4[nH]ccc34)nc21)NCC(F)(F)F [compound 424]
37 | > 4000 | < 500 | < 500 | CC(C)[C@H](C(=O)NCC(F)(F)F)n1ccc2cnc(-c3ccnc4[nH]ccc34)nc21 [compound 425]
